Reference: the NIST ThermoML archive (doi:10.1021/je020205i)

Experiment: xn = mol fraction of the nth substance listed
Conditions: Fluid (supercritical or subcritical phases), Taylor dispersion method, x1 = 0

CCCCCC=CCC=CCC=CCC=CCCCC(=O)O [5,8,11,14-eicosatetraenoic acid] + O=C=O
Conditions	binary diffusion coefficient [m2/s]
308.15 K, 9500 kPa	7.5e-09
308.15 K, 10000 kPa	7.17e-09
308.15 K, 10520 kPa	7.03e-09
308.15 K, 10870 kPa	6.75e-09
308.15 K, 11000 kPa	6.58e-09
308.15 K, 11500 kPa	6.57e-09
308.15 K, 12010 kPa	6.7e-09
308.15 K, 12020 kPa	6.48e-09
308.15 K, 12490 kPa	6.27e-09
308.15 K, 12990 kPa	6.18e-09
308.15 K, 14000 kPa	6.17e-09
308.15 K, 15990 kPa	5.9e-09
308.15 K, 17990 kPa	5.63e-09
308.15 K, 20010 kPa	5.48e-09
308.15 K, 22000 kPa	5.38e-09
308.15 K, 24000 kPa	5.25e-09
308.15 K, 26000 kPa	5.11e-09
308.15 K, 28010 kPa	5.02e-09
308.15 K, 30240 kPa	4.99e-09
308.15 K, 30490 kPa	4.85e-09
313.21 K, 9500 kPa	9.04e-09
313.21 K, 10000 kPa	8.41e-09
313.21 K, 11010 kPa	7.76e-09
313.21 K, 12010 kPa	7.1e-09
313.21 K, 14000 kPa	6.66e-09
313.21 K, 16000 kPa	6.29e-09
313.21 K, 18000 kPa	6.06e-09
313.21 K, 20000 kPa	5.78e-09
313.21 K, 22010 kPa	5.64e-09
313.21 K, 24010 kPa	5.53e-09
313.21 K, 26010 kPa	5.36e-09
313.21 K, 28020 kPa	5.24e-09
313.21 K, 30040 kPa	5.1e-09
313.21 K, 30130 kPa	5.1e-09
323.15 K, 12010 kPa	9.02e-09
323.15 K, 12500 kPa	9.07e-09
323.15 K, 13020 kPa	8.66e-09
323.15 K, 13480 kPa	8.28e-09
323.15 K, 14010 kPa	8.15e-09
323.15 K, 15990 kPa	7.44e-09
323.15 K, 18000 kPa	7.03e-09
323.15 K, 20020 kPa	6.78e-09
323.15 K, 21990 kPa	6.42e-09
323.15 K, 24000 kPa	6.21e-09
323.15 K, 26000 kPa	6.02e-09
323.15 K, 28020 kPa	5.88e-09
323.15 K, 30050 kPa	5.64e-09
323.15 K, 30060 kPa	5.82e-09
333.15 K, 13890 kPa	1.05e-08
333.15 K, 15030 kPa	9.16e-09
333.15 K, 15500 kPa	9.04e-09
333.15 K, 16980 kPa	8.47e-09
333.15 K, 17500 kPa	8.32e-09
333.15 K, 19010 kPa	7.91e-09
333.15 K, 19990 kPa	7.67e-09
333.15 K, 22010 kPa	7.26e-09
333.15 K, 24000 kPa	7.01e-09
333.15 K, 26010 kPa	6.81e-09
333.15 K, 26060 kPa	6.78e-09
333.15 K, 28030 kPa	6.68e-09
333.15 K, 30160 kPa	6.49e-09
343.15 K, 16200 kPa	1.01e-08
343.15 K, 16990 kPa	9.57e-09
343.15 K, 17490 kPa	9.45e-09
343.15 K, 18010 kPa	9.14e-09
343.15 K, 18990 kPa	8.93e-09
343.15 K, 19990 kPa	8.61e-09
343.15 K, 21000 kPa	8.46e-09
343.15 K, 22010 kPa	8.32e-09
343.15 K, 22980 kPa	7.87e-09
343.15 K, 23990 kPa	7.79e-09
343.15 K, 26000 kPa	7.58e-09
343.15 K, 28000 kPa	7.12e-09
343.15 K, 28050 kPa	7.3e-09
343.15 K, 30260 kPa	7.13e-09

CCCCC/C=C\C/C=C\CCCCCCCC(=O)O [(Z,Z)-9,12-octadecadienoic acid] + O=C=O
Conditions	binary diffusion coefficient [m2/s]
308.15 K, 8500 kPa	8.7e-09
308.15 K, 8970 kPa	8.31e-09
308.15 K, 10000 kPa	7.53e-09
308.15 K, 11020 kPa	7.33e-09
308.15 K, 12000 kPa	6.89e-09
308.15 K, 14000 kPa	6.45e-09
308.15 K, 16010 kPa	6.13e-09
308.15 K, 17470 kPa	6.02e-09
308.15 K, 18020 kPa	5.9e-09
308.15 K, 20000 kPa	5.85e-09
308.15 K, 21000 kPa	5.71e-09
308.15 K, 22030 kPa	5.69e-09
308.15 K, 25000 kPa	5.26e-09
308.15 K, 26000 kPa	5.2e-09
308.15 K, 28050 kPa	5.05e-09
308.15 K, 30300 kPa	4.96e-09
313.21 K, 9490 kPa	9.47e-09
313.21 K, 10040 kPa	8.74e-09
313.21 K, 10990 kPa	8.03e-09
313.21 K, 12000 kPa	7.7e-09
313.21 K, 14020 kPa	7.17e-09
313.21 K, 15980 kPa	6.75e-09
313.21 K, 17980 kPa	6.47e-09
313.21 K, 20000 kPa	6.13e-09
313.21 K, 21990 kPa	5.97e-09
313.21 K, 24000 kPa	5.77e-09
313.21 K, 26010 kPa	5.63e-09
313.21 K, 27990 kPa	5.46e-09
313.21 K, 30040 kPa	5.49e-09
313.21 K, 30110 kPa	5.39e-09
323.15 K, 12020 kPa	8.9e-09
323.15 K, 12510 kPa	9.15e-09
323.15 K, 13000 kPa	8.86e-09
323.15 K, 14000 kPa	8.58e-09
323.15 K, 16000 kPa	7.76e-09
323.15 K, 18000 kPa	7.39e-09
323.15 K, 20010 kPa	7.06e-09
323.15 K, 22000 kPa	6.83e-09
323.15 K, 24000 kPa	6.57e-09
323.15 K, 26000 kPa	6.37e-09
323.15 K, 28020 kPa	6.12e-09
323.15 K, 30290 kPa	5.9e-09
333.15 K, 13890 kPa	9.59e-09
333.15 K, 14480 kPa	9.99e-09
333.15 K, 15000 kPa	9.67e-09
333.15 K, 15980 kPa	9.33e-09
333.15 K, 18000 kPa	8.66e-09
333.15 K, 20000 kPa	8.28e-09
333.15 K, 20050 kPa	8.17e-09
333.15 K, 22000 kPa	7.82e-09
333.15 K, 24020 kPa	7.58e-09
333.15 K, 26060 kPa	7.21e-09
333.15 K, 27020 kPa	7.14e-09
333.15 K, 28020 kPa	7.03e-09
333.15 K, 29040 kPa	6.99e-09
333.15 K, 30070 kPa	6.82e-09
343.15 K, 16200 kPa	1.02e-08
343.15 K, 16210 kPa	1.04e-08
343.15 K, 16990 kPa	1.02e-08
343.15 K, 17990 kPa	9.85e-09
343.15 K, 18000 kPa	9.84e-09
343.15 K, 18990 kPa	9.43e-09
343.15 K, 20000 kPa	9.01e-09
343.15 K, 20040 kPa	9.18e-09
343.15 K, 22000 kPa	8.71e-09
343.15 K, 24000 kPa	8.37e-09
343.15 K, 26010 kPa	8.11e-09
343.15 K, 26990 kPa	7.88e-09
343.15 K, 28010 kPa	7.77e-09
343.15 K, 29050 kPa	7.81e-09
343.15 K, 30030 kPa	7.64e-09
